According to patent US9283280B2, “Compositions for drug administration” (Aegis Therapeutics, LLC, priority 2008, dated 2016):

Legend:
blood D-glucose [1] = experiment: Insulin eye drops with absorption enhancer in xylazine/ketamine-anesthetized hyperglycemic rats, blood D-glucose; format: in vivo, rat; conditions: for Blood Glucose Concentrations: insulin eye drops + 0.50% dodecyl maltoside
[2] = test system: Aspergillus niger (ATCC No. 16404); experiment: Antimicrobial activity of alkylglycoside solutions, plate count log reduction; format: cell-based; conditions: […]
Description: (§1) 20110-2209. The viable microorganisms used in the invention were not more than five passages removed from the original ATCC culture. As described herein, one passage is defined as the transfer of organisms from an established culture to fresh medium and all transfers are counted.
(§2) Cultures received from the ATCC are resuscitated according to the directions provided by the ATTC. Cells grown in broth were pelleted by centrifugation, resuspended in 1/20th the volume of fresh maintenance broth, and combined with an equal volume of 20% (v/v in water) sterile glycerol. Cells grown on agar were scraped from the surface into the maintenance broth also containing 10% glycerol broth. Small aliquots of the suspension were dispensed into sterile vials and the vials were stored in liquid nitrogen or in a mechanical freezer at a temperature no higher than about −50° C. When a fresh seed-stock vial was required, it was removed and used to inoculate a series of working stock cultures. These working stock cultures were then used periodically (each day in the case of bacteria and yeast) to start the inoculum culture.
(§3) The culture conditions for the inoculum culture is substantially as described in Table IV. For example, suitable media can include but is not limited to, Soybean-Casein Digest or Sabouraud Dextrose Agar Medium. […]
(§4) The suspension should be refrigerated if it is not used within 2 hours. To confirm the initial cfu per mL estimate, the number of cfu per mL in each suspension was determined using the conditions of media and microbial recovery incubation times listed in Table IV (e.g., from about 3 to about 7 days). This value serves to calibrate the size of inoculum used in the test. The bacterial and yeast suspensions were used within 24 hours of harvest; whereas the fungal preparation can be stored under refrigeration for up to 7 days.
(§5) To determine which alkylglycoside formulations have antibacterial activity, the formulations were prepared in phosphate buffered saline (PBS) at pH 7. As a source of nutrition, either 1.5 mg/mL bovine serum albumin (BSA; see Tables V and VI) or 1 mg/mL of PYY was added (see Table VII) to the medium. BSA (CAS Number: 9048-46-8) was obtained from Sigma-Aldrich, St. Louis, Mo., USA, n-dodecyl-4-O-α-D-glucopyranosyl-β-D-glucopyranoside and n-tetradecyl-4-O-α-D-glucopyranosyl-β-D-glucopyranoside were obtained from Anatrace Inc., Maumee, Ohio, USA, and PYY was obtained from Bachem California Inc., Torrance, Calif., USA.
(§6) Antibacterial activity of the alkylglycosides were conducted in four sterile, capped bacteriological containers of suitable size into which a sufficient volume of alkylglycoside solution had been transferred. Each container was inoculated with one of the prepared and standardized inoculums and mixed. The volume of the suspension inoculum was between about 0.5% and about 1.0% of the volume of the alkylglycoside solution. […]. To determine the level of inhibition of growth, or reduction of growth based on a logarithmic scale, the initial concentration of viable microorganisms in each test preparation was estimated based on the concentration of microorganisms in each of the standardized inoculum as determined by the plate-count method. The inoculated containers were then incubated at about 22.5° C.±2.5. The growth or non-growth of the microorganisms in each culture/container were again determined at day 14 and day 28. The number of cfu present in each calculation was determined by the plate-count procedure standard in the art for the applicable intervals. The change in the orders of magnitude of bacterium and/or fungi was then determined by subtracting the first calculated log 10 values of the concentrations of cfu per mL present at the start or beginning (e.g., day 0), from the log 10 values of the concentration of cfu per mL for each microorganism at the applicable test intervals (e.g., day 14 and day 28; see Tables V, VI and VII).

[3] = test system: Candida albicans (ATCC No. 10231); experiment: as above; format: cell-based; conditions: […]
Description: as §1, §2, §3, §4, §5, §6

[4] = test system: Escherichia coli (ATCC No. 8739); experiment: as above; format: cell-based; conditions: […]
Description: as §1, §2, §3, §4, §5, §6

[5] = test system: Staphylococcus aureus (ATCC No. 6538); experiment: as above; format: cell-based; conditions: […]
Description: as §1, §2, §3, §4, §5, §6

[6] = Intranasal triptans with alkylsaccharide in rats, plasma levels by HPLC; format: in vivo;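 further: rats in groups of eight given 20 µL into one nostril, dose expressed as triptan free base, Cmax and Tmax read from plasma concentration–time curves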
Description: Each set of drug solutions is administered to six groups of eight rats each by 20 uL instillation to a single nare of each animal. […] After the last blood sample is collected each animal is cuthanizcd with CO2. After blood collection, plasma is immediately prepared from each blood sample using lithium/heparin as the anticoagulant. Plasma samples are stored at −70° C. until analyzed. […] The observed Tmax values from each plot is determined by inspection of the concentration vs time plots and recorded as shown in Table XII. The doses designated in this table reflect amounts of triptan free base in each case.

human nasal epithelium = conditions: in vivo
blood D-glucose [7] = experiment: Glucagon eye drops with surfactant in rats, elevation of blood D-glucose; conditions: for Blood Glucose Concentration: glucagon eye drops + 0.5% surfactant added after 120 min
Description: Glucagon absorption from the eye was measured in rats given eye drops containing various surfactants plus glucagon (30 μg) (Eli Lilly, Indianapolis, Ind.) by monitoring an elevation in blood D-glucose levels. In these experiments, rats were anesthetized with sodium pentobarbital rather than xylazine/ketamin.
Paired animals that receive eye drops containing the surfactant alone, or glucagon alone, were compared to animals receiving eye drops with the surfactant plus glucagon.

[8] = eye drops 0.2% insulin + 0.5% enhancer
[9] = Naratriptan 0.22 mg/kg intranasal, alkylsaccharide 0.02%
[10] = Naratriptan 0.22 mg/kg intranasal, alkylsaccharide 0.05%
[11] = Naratriptan 0.22 mg/kg intranasal, alkylsaccharide 0.1%
[12] = Naratriptan 0.22 mg/kg intranasal, alkylsaccharide 0.5%
[13] = Naratriptan 0.22 mg/kg intranasal, alkylsaccharide 2%
[14] = Rizatriptan […] intranasal, alkylsaccharide 0.02%
[15] = Rizatriptan […] intranasal, alkylsaccharide 0.05%
[16] = Rizatriptan […] intranasal, alkylsaccharide 0.1%
[17] = Rizatriptan […] intranasal, alkylsaccharide 0.5%
[18] = Rizatriptan […] intranasal, alkylsaccharide 2%
[19] = Sumatriptan 6.2 mg/kg intranasal, alkylsaccharide 0.02%
[20] = Sumatriptan 6.2 mg/kg intranasal, alkylsaccharide 0.05%
[21] = Sumatriptan 6.2 mg/kg intranasal, alkylsaccharide 0.1%
[22] = Sumatriptan 6.2 mg/kg intranasal, alkylsaccharide 0.5%
[23] = Sumatriptan 6.2 mg/kg intranasal, alkylsaccharide 2%

CCCCCCCCCCCCO[C@@H]1O[C@H](CO)[C@@H](O[C@H]2O[C@H](CO)[C@@H](O)[C@H](O)[C@H]2O)[C@H](O)[C@H]1O [dodecyl maltoside, n-dodecyl-4-O-α-D-glucopyranosyl-β-D-glucopyranoside]
hypoglycemic effect / insulin absorption enhancement (blood D-glucose [1]; [8]): equally effective | hypoglycemic effect / insulin absorption enhancement (blood D-glucose [1]; eye drops 0.2% insulin + 0.5% enhancer, listed as dodecyl-β3-D-maltoside): prompt and sustained fall in blood glucose levels | Blood Glucose Concentrations (blood D-glucose [1]; time 0 min): 379 ± 4 mg/dL | Blood Glucose Concentrations (blood D-glucose [1]; time 30 min): 297 ± 18 mg/dL | Blood Glucose Concentrations (blood D-glucose [1]; time 60 min): 188 ± 25 mg/dL | Blood Glucose Concentrations (blood D-glucose [1]; time 90 min): 141 ± 13 mg/dL | Blood Glucose Concentrations (blood D-glucose [1]; time 120 min): 123 ± 5 mg/dL | Blood Glucose Concentrations (blood D-glucose [1]; time −10 min): 366 ± 12 mg/dL | Blood Glucose Concentrations (blood D-glucose [1]; time −20 min): 375 ± 9 mg/dL | Log Reduction of Microorganisms, Day 14 ([2]; BSA): 0.7 orders of orders of magnitude reduction | Log Reduction, Day 14 ([2]; PYY): 4.7 orders of orders of magnitude reduction | Log Reduction, Day 28 ([2]; PYY): 4.7 orders of orders of magnitude reduction | Log Reduction of Microorganisms, Day 14 ([3]; BSA): 3.0 orders of orders of magnitude reduction | Log Reduction of Microorganisms, Day 28 ([3]; BSA): ≧5.3 orders of orders of magnitude reduction | Log Reduction, Day 14 ([3]; PYY): ≧4.5 orders of orders of magnitude reduction | Log Reduction, Day 28 ([3]; PYY): ≧4.5 orders of orders of magnitude reduction | Log Reduction of Microorganisms, Day 28 ([4]; BSA): 0.1 orders of orders of magnitude reduction | Log Reduction, Day 14 ([4]; PYY): ≧5 orders of orders of magnitude reduction | Log Reduction, Day 28 ([4]; PYY): ≧5 orders of orders of magnitude reduction | Log Reduction of Microorganisms, Day 14 ([5]; BSA): ≧5.2 orders of orders of magnitude reduction | Log Reduction of Microorganisms, Day 28 ([5]; BSA): ≧5.2 orders of orders of magnitude reduction | Log Reduction, Day 14 ([5]; PYY): ≧4.9 orders of orders of magnitude reduction | Log Reduction, Day 28 ([5]; PYY): ≧4.9 orders of orders of magnitude reduction | Ratio Cmax(alkylsacch)/Cmax(No alkylsacch) [6, 9]: ≦1.5 | Tmax [6, 9]: ~60 to 120 min | Ratio Cmax(alkylsacch)/Cmax(No alkylsacch) [6, 10]: ≧1.5 | Tmax [6, 10]: ~5 to 15 min | Ratio Cmax(alkylsacch)/Cmax(No alkylsacch) [6, 11]: ≧1.5 | Tmax [6, 11]: ~5 to 15 min | Ratio Cmax(alkylsacch)/Cmax(No alkylsacch) [6, 12]: ≧1.5 | Tmax [6, 12]: ~5 to 15 min | Ratio Cmax(alkylsacch)/Cmax(No alkylsacch) [6, 13]: ≧1.5 | Tmax [6, 13]: ~5 to 15 min | Tmax [6, 14]: ~60 to 120 min | Tmax [6, 15]: ~5 to 15 min | Tmax [6, 16]: ~5 to 15 min | Tmax [6, 17]: ~5 to 15 min | Tmax [6, 18]: ~5 to 15 min | Ratio Cmax(alkylsacch)/Cmax(No alkylsacch) [6, 19]: ≦1.5 | Tmax [6, 19]: ~60 to 120 min | Ratio Cmax(alkylsacch)/Cmax(No alkylsacch) [6, 20]: ≧1.5 | Tmax [6, 20]: ~5 to 15 min | Ratio Cmax(alkylsacch)/Cmax(No alkylsacch) [6, 21]: ≧1.5 | Tmax [6, 21]: ~5 to 15 min | Ratio Cmax(alkylsacch)/Cmax(No alkylsacch) [6, 22]: ≧1.5 | Tmax [6, 22]: ~5 to 15 min | Ratio Cmax(alkylsacch)/Cmax(No alkylsacch) [6, 23]: ≧1.5 | Tmax [6, 23]: ~5 to 15 min

CCCCCCCCCCCC(=O)OC[C@H]1O[C@H](O[C@]2(CO)O[C@H](CO)[C@@H](O)[C@@H]2O)[C@H](O)[C@@H](O)[C@@H]1O [sucrose dodecanoate]
irritation of the nasal mucosa (human nasal epithelium): no observable irritation

CCCCCCCCCCCCCO[C@@H]1O[C@H](CO)[C@@H](O[C@H]2O[C@H](CO)[C@@H](O)[C@H](O)[C@H]2O)[C@H](O)[C@H]1O [tridecyl maltoside, tridecyl-β-D-maltoside]
Blood Glucose Concentration (blood D-glucose [1]; 0.5% surfactant, time −10 min, before insulin eye drops): 307 mg/dL | Blood Glucose Concentration (blood D-glucose [1]; 0.5% surfactant, time −20 min, before insulin eye drops): 255 mg/dL | hypoglycemic effect / insulin absorption enhancement (blood D-glucose [1]; [8]): effective | hypoglycemic effect / insulin absorption enhancement (blood D-glucose [1]; eye drops 0.2% insulin + […] enhancer): sustained for the two hour time course | Blood Glucose Concentration (blood D-glucose [1]; insulin eye drops + 0.5% surfactant, time 0 min): 323 mg/dL | Blood Glucose Concentration (blood D-glucose [1]; insulin eye drops + 0.5% surfactant, time 10 min): 309 mg/dL | Blood Glucose Concentration (blood D-glucose [1]; insulin eye drops + 0.5% surfactant, time 20 min): 217 mg/dL | Blood Glucose Concentration (blood D-glucose [1]; insulin eye drops + 0.5% surfactant, time 30 min): 131 mg/dL | Blood Glucose Concentration (blood D-glucose [1]; insulin eye drops + 0.5% surfactant, time 40 min): 100 mg/dL | Blood Glucose Concentration (blood D-glucose [1]; insulin eye drops + 0.5% surfactant, time 50 min): 87 mg/dL | Blood Glucose Concentration (blood D-glucose [1]; insulin eye drops + 0.5% surfactant, time 60 min): 107 mg/dL | Blood Glucose Concentration (blood D-glucose [1]; insulin eye drops + 0.5% surfactant, time 70 min): 115 mg/dL | Blood Glucose Concentration (blood D-glucose [1]; insulin eye drops + 0.5% surfactant, time 80 min): 79 mg/dL | Blood Glucose Concentration (blood D-glucose [1]; insulin eye drops + 0.5% surfactant, time 90 min): 85 mg/dL | Blood Glucose Concentration (blood D-glucose [1]; insulin eye drops + 0.5% surfactant, time 100 min): 76 mg/dL | Blood Glucose Concentration (blood D-glucose [1]; insulin eye drops + 0.5% surfactant, time 110 min): 74 mg/dL | Blood Glucose Concentration (blood D-glucose [1]; insulin eye drops + 0.5% surfactant, time 120 min): 75 mg/dL | Ratio Cmax(alkylsacch)/Cmax(No alkylsacch) [6, 9]: ≦1.5 | Tmax [6, 9]: ~60 min | Ratio Cmax(alkylsacch)/Cmax(No alkylsacch) [6, 10]: ≧1.5 | Tmax [6, 10]: ~5 to 15 min | Ratio Cmax(alkylsacch)/Cmax(No alkylsacch) [6, 11]: ≧1.5 | Tmax [6, 11]: ~5 to 15 min | Ratio Cmax(alkylsacch)/Cmax(No alkylsacch) [6, 12]: ≧1.5 | Tmax [6, 12]: ~5 to 15 min | Ratio Cmax(alkylsacch)/Cmax(No alkylsacch) [6, 13]: ≧1.5 | Tmax [6, 13]: ~5 to 15 min | Tmax [6, 14]: ~60 min | Tmax [6, 15]: ~5 to 15 min | Tmax [6, 16]: ~5 to 15 min | Tmax [6, 17]: ~5 to 15 min | Tmax [6, 18]: ~5 to 15 min | Ratio Cmax(alkylsacch)/Cmax(No alkylsacch) [6, 19]: ≦1.5 | Tmax [6, 19]: ~60 min | Ratio Cmax(alkylsacch)/Cmax(No alkylsacch) [6, 20]: ≧1.5 | Tmax [6, 20]: ~5 to 15 min | Ratio Cmax(alkylsacch)/Cmax(No alkylsacch) [6, 21]: ≧1.5 | Tmax [6, 21]: ~5 to 15 min | Ratio Cmax(alkylsacch)/Cmax(No alkylsacch) [6, 22]: ≧1.5 | Tmax [6, 22]: ~5 to 15 min | Ratio Cmax(alkylsacch)/Cmax(No alkylsacch) [6, 23]: ≧1.5 | Tmax [6, 23]: ~5 to 15 min | glucagon absorption / blood D-glucose values (blood D-glucose [7]; eye drops surfactant plus glucagon in rats previously treated with surfactant plus insulin eye drops): increase significantly | Blood Glucose Concentration (blood D-glucose [7]; time 130 min): 82 mg/dL | Blood Glucose Concentration (blood D-glucose [7]; time 140 min): 121 mg/dL | Blood Glucose Concentration (blood D-glucose [7]; time 150 min): 148 mg/dL | Blood Glucose Concentration (blood D-glucose [7]; time 160 min): 173 mg/dL | Blood Glucose Concentration (blood D-glucose [7]; time 170 min): 162 mg/dL | Blood Glucose Concentration (blood D-glucose [7]; time 180 min): 162 mg/dL | Blood Glucose Concentration (blood D-glucose [7]; time 190 min): 156 mg/dL
